Test system: powdery mildew of wheat (Erysiphe graminis forma specialis tritici)
Assay: Activity against powdery mildew of wheat (protective spray on wheat seedlings, greenhouse)
Type: in vivo
Settings: evaluated after 7 days
Description: The active ingredients, separately or together, were formulated as a 10% emulsion in a mixture of 70% by weight of cyclohexanone, 20% by weight of Nekanil® LN (Lutensol® AP6, wetting agent having emulsifying and dispersing action, based on ethoxylated alkylphenols) and 10% by weight of Emulphor® EL (Emulan® EL, emulsifier based on ethoxylated fatty alcohols) and diluted with water to give the desired concentration.
Leaves of wheat seedlings cv. “Fr{umlaut over (u )}hgold” which had been grown in pots were sprayed to runoff point with an aqueous preparation of active ingredient which had been made from a stock solution comprising 10% of active compound, 63% of cyclohexanone and 27% of emulsifier, and, 24 hours after the spray coating had dried on, were dusted with spores of powdery mildew of wheat (Erysiphe graminis forma specialis tritici). […] After 7 days, the extent of mildew development was determined visually in % infection of the total leaf area.
Evaluation was carried out by determining the infected leaf areas in percent. […] The efficacy (E) was calculated as follows using Abbot's formula: […]
The expected degrees of action of the mixtures of the active ingredients were determined using Colby's formula [R. S. Colby, Weeds 15, (1967) 20-22] and compared with the observed degrees of action. […]

`CO/N=C(/C(=O)OC)c1ccccc1COc1ccccc1C` [Ia] was tested, and the “Efficacy in % of the untreated contol” value (0.3 ppm active ingredient in the spray liquor) was 0% and the “Efficacy in % of the untreated contol” value (0.6 ppm active ingredient in the spray liquor) was 0%.
